Assay results reported in PubChem BioAssay (NCI).
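The compound was tested at five concentrations on cells cultured in 96-well plates, with a 48-hour exposure period. TGI: concentration producing complete growth inhibition.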

Legend:
Assay in all cases: growth of human tumour cells (NCI), 48 h
NCI-H226 lung = tested on: NCI-H226 lung
ACHN renal = tested on: ACHN renal
HCT-116 colon = tested on: HCT-116 colon
SF-539 CNS = tested on: SF-539 CNS
HCT-15 colon = tested on: HCT-15 colon
A498 renal = tested on: A498 renal
NCI-H460 lung = tested on: NCI-H460 lung
SF-295 CNS = tested on: SF-295 CNS
MCF7 breast = tested on: MCF7 breast
NCI-H23 lung = tested on: NCI-H23 lung
SNB-19 CNS = tested on: SNB-19 CNS
OVCAR-5 ovarian = tested on: OVCAR-5 ovarian
MDA-MB-231 breast = tested on: MDA-MB-231 breast
SK-MEL-5 melanoma = tested on: SK-MEL-5 melanoma
M14 melanoma = tested on: M14 melanoma
RXF 393 renal = tested on: RXF 393 renal
OVCAR-8 ovarian = tested on: OVCAR-8 ovarian
UACC-257 melanoma = tested on: UACC-257 melanoma
SK-OV-3 ovarian = tested on: SK-OV-3 ovarian
PC-3 prostate = tested on: PC-3 prostate
SW-620 colon = tested on: SW-620 colon
IGROV1 ovarian = tested on: IGROV1 ovarian
HL-60(TB) leukemia = tested on: HL-60(TB) leukemia
K-562 leukemia = tested on: K-562 leukemia
T-47D breast = tested on: T-47D breast
HCC-2998 colon = tested on: HCC-2998 colon
TK-10 renal = tested on: TK-10 renal
SK-MEL-28 melanoma = tested on: SK-MEL-28 melanoma
DU-145 prostate = tested on: DU-145 prostate
MDA-MB-435 = tested on: MDA-MB-435
SN12C renal = tested on: SN12C renal
UACC-62 melanoma = tested on: UACC-62 melanoma
HS 578T breast = tested on: HS 578T breast
RPMI-8226 leukemia = tested on: RPMI-8226 leukemia
SF-268 CNS = tested on: SF-268 CNS
A549 NSCLC = tested on: A549 NSCLC
OVCAR-3 ovarian = tested on: OVCAR-3 ovarian
KM12 colon = tested on: KM12 colon
HOP-62 NSCLC = tested on: HOP-62 NSCLC
786-0 renal = tested on: 786-0 renal
OVCAR-4 ovarian = tested on: OVCAR-4 ovarian
UO-31 renal = tested on: UO-31 renal
EKVX NSCLC = tested on: EKVX NSCLC
NCI/ADR-RES ovarian = tested on: NCI/ADR-RES ovarian
NCI-H522 lung = tested on: NCI-H522 lung
U251 CNS = tested on: U251 CNS
COLO 205 colon = tested on: COLO 205 colon
SK-MEL-2 melanoma = tested on: SK-MEL-2 melanoma
MALME-3M melanoma = tested on: MALME-3M melanoma
LOX IMVI melanoma = tested on: LOX IMVI melanoma
CCRF-CEM leukemia = tested on: CCRF-CEM leukemia
CAKI-1 renal = tested on: CAKI-1 renal
HT29 colon = tested on: HT29 colon
MDA-N = tested on: MDA-N
HOP-92 NSCLC = tested on: HOP-92 NSCLC
MOLT-4 leukemia = tested on: MOLT-4 leukemia
SR leukemia = tested on: SR leukemia
BT-549 breast = tested on: BT-549 breast
SNB-75 CNS = tested on: SNB-75 CNS

With `Cc1cc(=O)[nH]c(-n2[nH]c(C)c(CCO)c2=O)n1` the TGI (NCI-H226 lung) was > 100 µM, the TGI (ACHN renal) was > 100 µM and the TGI (HCT-116 colon) was > 100 µM. The TGI (SF-539 CNS) was > 100 µM, the TGI (HCT-15 colon) was > 100 µM and the TGI (A498 renal) was > 100 µM. For the same compound, the TGI (NCI-H460 lung) was > 100 µM, the TGI (SF-295 CNS) was > 100 µM and the TGI (MCF7 breast) was > 100 µM. The TGI (NCI-H23 lung) was > 100 µM, the TGI (SNB-19 CNS) was > 100 µM and the TGI (OVCAR-5 ovarian) was > 100 µM. For the same compound, the TGI (MDA-MB-231 breast) was > 100 µM, the TGI (SK-MEL-5 melanoma) was > 100 µM and the TGI (M14 melanoma) was > 100 µM. For the same compound, the TGI (RXF 393 renal) was > 100 µM, the TGI (OVCAR-8 ovarian) was > 100 µM and the TGI (UACC-257 melanoma) was > 100 µM. For the same compound, the TGI (SK-OV-3 ovarian) was > 100 µM, the TGI (PC-3 prostate) was > 100 µM and the TGI (SW-620 colon) was > 100 µM. For the same compound, the TGI (IGROV1 ovarian) was > 100 µM, the TGI (HL-60(TB) leukemia) was > 100 µM and the TGI (K-562 leukemia) was > 100 µM. The TGI (T-47D breast) was > 100 µM, the TGI (HCC-2998 colon) was > 100 µM and the TGI (TK-10 renal) was > 100 µM. For the same compound, the TGI (SK-MEL-28 melanoma) was > 100 µM, the TGI (DU-145 prostate) was > 100 µM and the TGI (MDA-MB-435) was > 100 µM. The TGI (SN12C renal) was > 100 µM, the TGI (UACC-62 melanoma) was > 100 µM and the TGI (HS 578T breast) was > 100 µM. For the same compound, the TGI (RPMI-8226 leukemia) was > 100 µM, the TGI (SF-268 CNS) was > 100 µM and the TGI (A549 NSCLC) was > 100 µM. For the same compound, the TGI (OVCAR-3 ovarian) was > 100 µM, the TGI (KM12 colon) was > 100 µM and the TGI (HOP-62 NSCLC) was > 100 µM. The TGI (786-0 renal) was > 100 µM, the TGI (OVCAR-4 ovarian) was > 100 µM and the TGI (UO-31 renal) was > 100 µM. The TGI (EKVX NSCLC) was > 100 µM, the TGI (NCI/ADR-RES ovarian) was > 100 µM and the TGI (NCI-H522 lung) was > 100 µM. The TGI (U251 CNS) was > 100 µM, the TGI (COLO 205 colon) was > 100 µM and the TGI (SK-MEL-2 melanoma) was > 100 µM. The TGI (MALME-3M melanoma) was > 100 µM, the TGI (LOX IMVI melanoma) was > 100 µM and the TGI (CCRF-CEM leukemia) was > 100 µM. For the same compound, the TGI (CAKI-1 renal) was > 100 µM, the TGI (HT29 colon) was > 100 µM and the TGI (MDA-N) was > 100 µM.

With `CC(C)OC(=O)c1ccc(NCc2cc(O)ccc2O)cc1Cl` the TGI (NCI-H226 lung) was > 49.9 µM, the TGI (ACHN renal) was 7.83 µM and the TGI (HOP-92 NSCLC) was 18 µM. It also gave a TGI (HCT-116 colon) of 52.5 µM, a TGI (SF-539 CNS) of 6.07 µM and a TGI (HCT-15 colon) of 3.95 µM. The TGI (A498 renal) was > 75.9 µM, the TGI (NCI-H460 lung) was 23.7 µM and the TGI (SF-295 CNS) was 34.6 µM. The TGI (MCF7 breast) was > 45.2 µM, the TGI (NCI-H23 lung) was 28.6 µM and the TGI (SNB-19 CNS) was > 22.2 µM. The TGI (OVCAR-5 ovarian) was 26.6 µM, the TGI (MDA-MB-231 breast) was > 54 µM and the TGI (SK-MEL-5 melanoma) was 11.1 µM. For the same compound, the TGI (M14 melanoma) was > 100 µM, the TGI (RXF 393 renal) was 13.1 µM and the TGI (OVCAR-8 ovarian) was > 70.1 µM. It also gave a TGI (UACC-257 melanoma) of 37.1 µM, a TGI (MOLT-4 leukemia) of 8.97 µM and a TGI (SK-OV-3 ovarian) of 49.2 µM. The TGI (PC-3 prostate) was 12.5 µM, the TGI (SW-620 colon) was > 62.5 µM and the TGI (IGROV1 ovarian) was 14.7 µM. It also gave a TGI (SR leukemia) of 8.6 µM, a TGI (HCC-2998 colon) of 17.3 µM and a TGI (TK-10 renal) of 20.2 µM. The TGI (SK-MEL-28 melanoma) was 38.6 µM, the TGI (DU-145 prostate) was 26.4 µM and the TGI (MDA-MB-435) was 23.3 µM. For the same compound, the TGI (SN12C renal) was 32.2 µM, the TGI (UACC-62 melanoma) was 18.6 µM and the TGI (HS 578T breast) was > 100 µM. The TGI (SF-268 CNS) was > 66.4 µM, the TGI (A549 NSCLC) was > 76.7 µM and the TGI (OVCAR-3 ovarian) was > 42.2 µM. The TGI (KM12 colon) was > 38.1 µM, the TGI (HOP-62 NSCLC) was > 64.5 µM and the TGI (786-0 renal) was 10.8 µM. For the same compound, the TGI (OVCAR-4 ovarian) was 21.9 µM, the TGI (UO-31 renal) was 2.38 µM and the TGI (EKVX NSCLC) was 25.5 µM. For the same compound, the TGI (NCI/ADR-RES ovarian) was > 100 µM, the TGI (U251 CNS) was 24.6 µM and the TGI (COLO 205 colon) was 9.08 µM. The TGI (SK-MEL-2 melanoma) was > 55 µM, the TGI (BT-549 breast) was 1.57 µM and the TGI (LOX IMVI melanoma) was > 100 µM. For the same compound, the TGI (CAKI-1 renal) was 3.02 µM, the TGI (HT29 colon) was > 93 µM and the TGI (MDA-N) was 22.6 µM. It also gave a TGI (SNB-75 CNS) of 31.1 µM.
